Source: patent publication US20250188059A1, “NOVEL COMPOUND AND USE THEREOF FOR INHIBITING CHECKPOINT KINASE 2” (ARUM THERAPEUTICS INC, priority 2022, published 2025)
Like-named read-outs stand apart in the source and are kept apart here.

Tests used:
[1] = test system: human breast cancer cell line MCF-7; assay: Cancer cell growth inhibition test (CellTiter-Glo); type: cell-based; conditions: MCF-7, 72 hours
Procedure: The human breast cancer cell line MCF-7 was treated with trypsin and harvested. The number of cells was counted, and about 3000 cells/80 μl per well were inoculated into a 96 well plate (Corning) and then incubated in a 37° C. incubator for 24 hours. Thereafter, the example compounds were diluted in a culture solution at various concentrations, and each well was treated with 20 μl and stored in a cell culture incubator for 72 hours. In the case of the group administered in combination, the example compounds and cisplatin or doxorubicin were diluted in a culture solution at various concentrations, and each well was treated with 20 μl. After 72 hours, each well was treated with 30 μl of CellTiter-Glo solution (Promega), and the luminescence was read on a Victor3 multi label reader (PerkinElmer).
Relative viability (%)=(value of each test well/value of well treated with DMSO alone)×100
The results obtained for each concentration for each example compound were the average values obtained from three wells, and PRIZM software was used for analysis of the results.

Chk1 kinase = Chk1 kinase (Homo sapiens (Human), UniProt O14757); assay: Chk1 kinase inhibitory activity (LanthaScreen TR-FRET); type: biochemical; conditions: graded
Chk1 kinase, sequence (O14757 whole entry): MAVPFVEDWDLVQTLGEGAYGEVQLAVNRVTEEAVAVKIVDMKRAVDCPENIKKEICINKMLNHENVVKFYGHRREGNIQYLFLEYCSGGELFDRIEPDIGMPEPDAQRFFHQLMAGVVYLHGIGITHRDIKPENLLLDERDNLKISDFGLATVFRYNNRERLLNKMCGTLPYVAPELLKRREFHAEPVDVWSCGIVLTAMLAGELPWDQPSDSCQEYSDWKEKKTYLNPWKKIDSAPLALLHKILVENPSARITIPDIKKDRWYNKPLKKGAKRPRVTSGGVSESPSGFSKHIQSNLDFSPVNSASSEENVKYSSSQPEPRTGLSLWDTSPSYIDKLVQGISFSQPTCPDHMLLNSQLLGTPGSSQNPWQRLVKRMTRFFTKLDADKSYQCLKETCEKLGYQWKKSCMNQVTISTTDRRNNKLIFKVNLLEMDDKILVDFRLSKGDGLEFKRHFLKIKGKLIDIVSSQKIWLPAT
Procedure: (§1) The compounds of Examples 1 to 66 were diluted at various concentrations and transferred to a 384-well plate by 5 μl, and 10 μl of a mixed solution (2×) of Chk1 kinase (Thermo, P3040) or Chk2 kinase (Thermo, PV3367) and a substrate (Thermo, PV3508) was added to wells treated with the compounds. 5 μl of an ATP solution at a 4× concentration was added to the test well and reacted at room temperature for 1 hour. 20 μl of LanthaScreen Terbium-CREB p-Ser 133 antibody (Thermo, PV3542) was added to the reaction well and incubated at room temperature for 30 minutes. Conversion data was measured by an EnVision 2014 multi label reader (PerkinElmer). The activity for each concentration was determined by the ratio (FRET ratio=FR) of the value obtained by dividing the value at 520 nm by the value at 490 nm among the emission wavelength values for each wavelength (Em520/Em490). The results obtained for each concentration of the compounds were the average values obtained in two wells, and the IC50 values of the compounds were calculated using PRIZM software for analysis of the results. IC50 in Table 7 was graded as follows.

Chk2 kinase = Chk2 kinase (Homo sapiens (Human), UniProt O96017); assay: Chk2 kinase inhibitory activity (LanthaScreen TR-FRET); type: biochemical; conditions: graded
Chk2 kinase, sequence (O96017 whole entry): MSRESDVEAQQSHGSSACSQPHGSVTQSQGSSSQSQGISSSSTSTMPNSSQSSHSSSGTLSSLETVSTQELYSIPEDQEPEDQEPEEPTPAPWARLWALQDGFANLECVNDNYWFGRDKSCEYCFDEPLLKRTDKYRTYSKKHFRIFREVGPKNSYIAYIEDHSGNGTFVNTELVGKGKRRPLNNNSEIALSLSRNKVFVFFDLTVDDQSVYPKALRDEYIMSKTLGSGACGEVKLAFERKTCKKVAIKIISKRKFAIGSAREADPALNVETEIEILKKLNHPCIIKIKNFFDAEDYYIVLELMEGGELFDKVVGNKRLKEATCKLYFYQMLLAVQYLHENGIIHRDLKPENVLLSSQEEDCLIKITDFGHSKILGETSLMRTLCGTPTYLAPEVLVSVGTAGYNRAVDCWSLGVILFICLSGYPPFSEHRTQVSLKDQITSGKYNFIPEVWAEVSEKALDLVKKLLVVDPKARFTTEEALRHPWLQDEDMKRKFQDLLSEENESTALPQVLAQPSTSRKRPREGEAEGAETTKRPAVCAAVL
Procedure: as §1

[2] = Homo sapiens, MCF7, 72 h, alone, read-out: Administered alone (IC50)
[3] = Homo sapiens, MCF7, 72 h, graded, read-out: Celltiter glo analysis (IC50)
[4] = combination with cisplatin, read-out: Administered in combination with cisplatin (IC50)
[5] = combination with doxorubicin, read-out: Administered in combination with doxorubicin (IC50)

Compound	IC50 [1, 2]	IC50 [1, 3]	IC50 [1, 4]	IC50 [1, 5]	IC50 (Chk1 kinase)	IC50 (Chk2 kinase)
Nc1ncc(-c2ccnc(-c3cnn(CC(F)(F)F)c3)c2)nc1C(=O)N[C@@H]1CNCC[C@H]1O [Example 14, 3-amino-N-((3R,4R)-4-hydroxypiperidin-3-yl)-6-(2-(1-(2,2,2-trifluoroethyl)-1H-pyrazol-4-yl)pyridin-4-yl)pyrazine-2-carboxamide]	–	> 100 µM	–	–	0.1 to 1 µM	0.01 to 0.1 µM
Cc1ccc(-c2cnn(CC(C)(C)O)c2)cc1-c1cnc(N)c(C(=O)N[C@@H]2CNC[C@@H](F)C2)n1 [Example 37, 3-amino-N-((3S,5S)-5-fluoropiperidin-3-yl)-6-(5-(1-(2-hydroxy-2-methylpropyl)-1H-pyrazol-4-yl)-2-methylphenyl) pyrazine-2-carboxamide]	–	> 100 µM	–	–	> 1 µM	0.01 to 0.1 µM
Cn1cc(-c2cccc(-c3cnc(N)c(C(=O)N[C@@H]4CNC[C@@H](F)C4)n3)c2)cn1 [Example 17, 3-amino-N-((3S,5S)-5-fluoropiperidin-3-yl)-6-(3-(1-methyl-1H-pyrazol-4-yl)phenyl)pyrazine-2-carboxamide]	–	10 to 100 µM	–	–	0.01 to 0.1 µM	≤ 0.01 µM
Cn1cc(-c2ccc(F)c(-c3cnc(N)c(C(=O)N[C@H]4CCCNC4)n3)c2)cn1 [Example 18, (S)-3-amino-6-(2-fluoro-5-(1-methyl-1H-pyrazol-4-yl)phenyl)-N-(piperidin-3-yl)pyrazine-2-carboxamide]	–	10 to 100 µM	–	–	> 1 µM	0.01 to 0.1 µM

More lines, now with the values ahead:

IC50 [1, 2]	IC50 [1, 3]	IC50 [1, 4]	IC50 [1, 5]	IC50 (Chk1 kinase)	IC50 (Chk2 kinase)	Compound
48.1 µM	10 to 100 µM	3.44 µM	0.67 µM	> 1 µM	0.01 to 0.1 µM	Nc1ncc(-c2cc(-c3cnn(CC(F)(F)F)c3)ncc2F)nc1C(=O)N[C@@H]1CNCC(F)(F)C1 [Example 4, (S)-3-amino-N-(5,5-difluoropiperidin-3-yl)-6-(5-fluoro-2-(1-(2,2,2-trifluoroethyl)-1H-pyrazol-4-yl)pyridin-4-yl)pyrazine-2-carboxamide]
–	10 to 100 µM	–	–	> 1 µM	> 1 µM	CC(C)(O)Cn1cc(-c2ccc(F)c(-c3cnc(N)c(C(=O)N[C@@H]4CNCC(F)(F)C4)n3)c2)cn1 [Example 36, (S)-3-amino-N-(5,5-difluoropiperidin-3-yl)-6-(2-fluoro-5-(1-(2-hydroxy-2-methylpropyl)-1H-pyrazol-4-yl)phenyl)pyrazine-2-carboxamide]
–	10 to 100 µM	–	–	0.01 to 0.1 µM	0.01 to 0.1 µM	Nc1ncc(-c2ccnc(-c3cnn(C4CC4)c3)c2)nc1C(=O)N[C@H]1CCCNC1 [Example 20, (S)-3-amino-6-(2-(1-cyclopropyl-1H-pyrazol-4-yl)pyridin-4-yl)-N-(piperidin-3-yl)pyrazine-2-carboxamide]
–	10 to 100 µM	–	–	> 1 µM	> 1 µM	Cc1ccc(-c2cnn(CC(C)(C)O)c2)cc1-c1cnc(N)c(C(=O)N[C@@H]2CNCC(F)(F)C2)n1 [Example 38, (S)-3-amino-N-(5,5-difluoropiperidin-3-yl)-6-(5-(1-(2-hydroxy-2-methylpropyl)-1H-pyrazol-4-yl)-2-methylphenyl)pyrazine-2-carboxamide]
11.8 µM	≤ 10 µM	2.27 µM	3.05 µM	0.1 to 1 µM	≤ 0.01 µM	Nc1ncc(-c2ccnc(-c3cnn(CC(F)(F)F)c3)c2)nc1C(=O)N[C@@H]1CNC[C@@H](F)C1 [Example 15, 3-amino-N-((3S,5S)-5-fluoropiperidin-3-yl)-6-(2-(1-(2,2,2-trifluoroethyl)-1H-pyrazol-4-yl)pyridin-4-yl)pyrazine-2-carboxamide]
–	10 to 100 µM	–	–	> 1 µM	0.01 to 0.1 µM	CC(C)(O)Cn1cc(-c2ccc(F)c(-c3cnc(N)c(C(=O)N[C@@H]4CNC[C@@H](F)C4)n3)c2)cn1 [Example 35, 3-amino-6-(2-fluoro-5-(1-(2-hydroxy-2-methylpropyl)-1H-pyrazol-4-yl)phenyl)-N-((3S,5S)-5-fluoropiperidin-3-yl)pyrazine-2-carboxamide]
